Laboratory results as given in patent US20150173370A1, “S[…] CONTROL FROM COMBINATIONS OF 2,4-D-CHOLINE, GLYPHOSATE, AND GLUFOSINATE” (Dow AgroSciences LLC, priority 2013, published 2015).
Where “and” joins values, the source holds several entries; their conditions need not be identical. Identical values can stand only once.

Columns and labels:
AAD12 Soybean (GLXMA) [1] = test: Field trials, crop tolerance (% visual chlorosis); assay type: in vivo, Glycine max L. (soybean)
Procedure: Field trials were conducted under agricultural field conditions in multiple states in the United States, including but not limited to Arkansas, Iowa, Illinois, Indiana, Kansas, Minnesota, Mississippi, Missouri, New York, Tennessee and Wisconsin. Trials were established as RCB (randomized complete block) design, with 3-4 replicates per treatment, and plot sizes varying from 5-10 feet (ft) wide by 12-30 ft long. Treatments were applied with small plot backpack sprayers, using pressurized carbon dioxide (CO2) as propellant. Pressure varied from 17-52 pounds per square inch (psi), with spray tips typically of a Flat Fan type applying water diluent at 15 gallons per acre (GPA). Boom sizes varied from 5-11 ft in width. Treatments were applied to soybean, cotton, corn or fallow crop land. Weed sizes varied, but all treatments were applied as post-emergence treatments to weeds from 2 leaf to 2 tiller growth stages varying from 3 to 17 inches in height. The weed spectrum included, but was not limited to, Amaranthus palmeri S. Wats. (Palmer amaranth, AMAPA), Ambrosia trifida L. (giant ragweed, AMBTR), Conyza canadensis (L.) Cronq. (horseweed, ERICA) and Salsola tragus L. (Russian thistle, SASKR). […]
However, the experiments described herein were performed such that active ingredients A and B were combined and only the efficacy of the combination was determined. […]

AAD12 Soybean (GLXMA) [2] = test: Field trials, crop tolerance (% visual necrosis); assay type: in vivo, Glycine max L. (soybean)
Procedure: Field trials were conducted under agricultural field conditions in multiple states in the United States, including but not limited to Arkansas, Iowa, Illinois, Indiana, Kansas, Minnesota, Mississippi, Missouri, New York, Tennessee and Wisconsin. Trials were established as RCB (randomized complete block) design, with 3-4 replicates per treatment, and plot sizes varying from 5-10 feet (ft) wide by 12-30 ft long. Treatments were applied with small plot backpack sprayers, using pressurized carbon dioxide (CO2) as propellant. Pressure varied from 17-52 pounds per square inch (psi), with spray tips typically of a Flat Fan type applying water diluent at 15 gallons per acre (GPA). Boom sizes varied from 5-11 ft in width. Treatments were applied to soybean, cotton, corn or fallow crop land. Weed sizes varied, but all treatments were applied as post-emergence treatments to weeds from 2 leaf to 2 tiller growth stages varying from 3 to 17 inches in height. The weed spectrum included, but was not limited to, Amaranthus palmeri S. Wats. (Palmer amaranth, AMAPA), Ambrosia trifida L. (giant ragweed, AMBTR), Conyza canadensis (L.) Cronq. (horseweed, ERICA) and Salsola tragus L. (Russian thistle, SASKR).
Glyphosate-, 2,4-D- and glufosinate-tolerant soybeans, corn or cotton comprising genes for tolerance for each herbicide as described above were used in all trials either as a breeding stack of one to three herbicide-tolerant events or as a molecular stack where all three herbicide tolerance traits were transformed into a single event.
The 2,4-D-choline salt plus glyphosate premix formulation was a 400 g ae/L SL containing 195 g ae/L 2,4-D-choline salt and 205 g ae/L glyphosate-dimethylammonium (DMA) salt. […] All treatments were mixed in water at appropriate formulated product rates to achieve the desired rates as shown based on a unit area of application (hectare). Treatments were rated at 1 to 28 days after application (DAA) as compared to the untreated control plants. The trial sites had naturally occurring populations of weeds. The treated plots and control plots were rated blind at various intervals after application.
Colby's equation was used to determine the herbicidal effects expected from the mixtures (Colby, S. R. Calculation of the synergistic and antagonistic response of herbicide combinations. Weeds 1967, 15, 20-22). A t-test (alpha=0.05) between Colby predictions and observed combinations was used to test for significant differences indicating synergy or antagonism using replicate data.
However, the experiments described herein were performed such that active ingredients A and B were combined and only the efficacy of the combination was determined. As such, Colby's equation simplifies to
Z=observed efficacy of a combination of active ingredient A (2,4-D-choline) and active ingredient B (glyphosate-DMA) at the same concentration as used in the mixture;

In the case of `CP(=O)(O)CCC(N)C(=O)O` (stereo not shown) [Glufosinate-Ammonium, ammonium (3-amino-3-carboxypropyl)(methyl)phosphinate], the “Mean % Visual Chlorosis” value (AAD12 Soybean (GLXMA) [1]; 10 DAA, 1084 g ae/ha alone) is reported as 8.5% and 10.0%, the “Mean % Visual Chlorosis” value (AAD12 Soybean (GLXMA) [1]; 14 DAA, 542 g ae/ha alone) is reported as 5.8% and the “Mean % Visual Necrosis” value (AAD12 Soybean (GLXMA) [2]; 2 DAA, 1084 g ae/ha alone) is reported as 25.0%. The “Mean % Visual Necrosis” value (AAD12 Soybean (GLXMA) [2]; 3 DAA, 542 g ae/ha alone) was 0.0%, the “Mean % Visual Necrosis” value (AAD12 Soybean (GLXMA) [2]; 3 DAA, 822 g ae/ha alone) was 0.8% and the “Mean % Visual Necrosis” value (AAD12 Soybean (GLXMA) [2]; 3 DAA, 1084 g ae/ha alone) was 3.0% and 8.5% and 1.5% and 1.3%. For the same compound, the “Mean % Visual Necrosis” value (AAD12 Soybean (GLXMA) [2]; 5 DAA, 542 g ae/ha alone) was 2.8%, the “Mean % Visual Necrosis” value (AAD12 Soybean (GLXMA) [2]; 7 DAA, 542 g ae/ha alone) was 0.5% and 0.3% and the “Mean % Visual Necrosis” value (AAD12 Soybean (GLXMA) [2]; 7 DAA, 822 g ae/ha alone) was 0.8% and 0.0% and 10.0% and 1.0% and 1.3%. The “Mean % Visual Necrosis” value (AAD12 Soybean (GLXMA) [2]; 7 DAA, 1084 g ae/ha alone) was 3.3% and 1.3% and 10.0% and 2.0% and 2.3%, the “Mean % Visual Necrosis” value (AAD12 Soybean (GLXMA) [2]; 8 DAA, 822 g ae/ha alone) was 7.5% and the “Mean % Visual Necrosis” value (AAD12 Soybean (GLXMA) [2]; 8 DAA, 1084 g ae/ha alone) was 10.0% and 12.5% and 6.5%. The “Mean % Visual Necrosis” value (AAD12 Soybean (GLXMA) [2]; 9 DAA, 822 g ae/ha alone) was 6.0%, the “Mean % Visual Necrosis” value (AAD12 Soybean (GLXMA) [2]; 10 DAA, 1084 g ae/ha alone) was 2.3% and the “Mean % Visual Necrosis” value (AAD12 Soybean (GLXMA) [2]; 14 DAA, 822 g ae/ha alone) was 0.0% and 1.0%. For the same compound, the “Mean % Visual Necrosis” value (AAD12 Soybean (GLXMA) [2]; 14 DAA, 1084 g ae/ha alone) was 5.0% and 2.0%, the “Mean % Visual Necrosis” value (AAD12 Soybean (GLXMA) [2]; 16 DAA, 542 g ae/ha alone) was 3.0% and the “Mean % Visual Necrosis” value (AAD12 Soybean (GLXMA) [2]; 16 DAA, 822 g ae/ha alone) was 5.0%. For the same compound, the “Mean % Visual Necrosis” value (AAD12 Soybean (GLXMA) [2]; 16 DAA, 1084 g ae/ha alone) was 1.8%.
